Source: paper PMC2225441, “Partial Restoration of Mutant Enzyme Homeostasis in Three Distinct Lysosomal Storage Disease Cell Lines by Altering Calcium Homeostasis” (PLoS Biology, 2008)

Assays:
L444P GC = assay: intact cell GC activity assay in homozygous L444P GC patient-derived fibroblasts; type: cell-based, human; details: for L444P GC activity, screen of fifteen thermosensitive TRP channel modulators: intact cell GC enzyme assay, 5-d incubation, Figure S1, only the named compound increased activity; for maximum increase in L444P GC activity: 30 μM; for effect on L444P GC activity: 0.3–100 μM; for L444P GC activity, screen of VGCC blockers, ionotropic glutamate receptor inhibitors and other calcium channel blockers: intact cell GC activity assay, only the named compounds increased activity
ΔF508 CFTR = details: SERCA inhibitor; cited from earlier work
Ca^2+ channel = details: previously reported; read-out: Ca^2+ channel blocker IC50; cited from earlier work
L444P fibroblasts = assay: cytotoxicity to L444P fibroblasts; type: cell-based, human; details: high concentrations (>10 μM)
[1] = 7 d, intact cell assay, Figure 3D

| SMILES | L444P GC activity, screen of fifteen thermosensitive TRP channel modulators (L444P GC) | L444P GC activity, screen of VGCC blockers, ionotropic glutamate receptor inhibitors and other calcium channel blockers (L444P GC) | also measured |
| --- | --- | --- | --- |
| NCCOB(c1ccccc1)c1ccccc1 [Compound 2-APB, 2-APB] | Only ruthenium red notably increased | – | – |
| COc1cc(CNC(=O)CCCC/C=C/C(C)C)ccc1O [capsaicin] | Only ruthenium red notably increased | – | – |
| C/C=C(/C)C(=O)O[C@H]1C(C)=C2[C@H]([C@@H]1OC(=O)CCCCCCC)[C@@](C)(OC(C)=O)C[C@H](OC(=O)CCC)[C@@]1(O)[C@H]2OC(=O)[C@@]1(C)O [thapsigargin] | – | – | L444P GC folding, trafficking, or lysosomal activity (L444P GC; Figure S4): does not enhance L444P GC folding, trafficking, or lysosomal activity; influence on L444P GC activity at higher concentration (L444P GC; alone, above 1 nM, 7-d incubation, Figure S4): decreased L444P GC activity significantly; influence on L444P GC activity at low concentration (L444P GC; alone, until 1 nM, 7 d, Figure S4): no influence on GC activity; L444P GC activity on co-application with diltiazem (L444P GC; varying concentrations with 10 μM diltiazem, 7 d, Figure S4): dose-dependent decrease of GC activity; folding and trafficking of ΔF508 CFTR (ΔF508 CFTR): enhance folding and trafficking of ΔF508 CFTR |
| CNCCN1C(=O)[C@H](O)[C@H](c2ccc(O)cc2)Sc2ccccc21 [Compound 4] | – | – | maximum increase in L444P GC activity (L444P GC; [1]): 1.2 fold; IC50 (Ca^2+ channel): 127 µM |
| COc1ccc([C@@H]2Sc3ccccc3NC(=O)[C@@H]2OC(C)=O)cc1 [Compound 5] | – | – | effect on L444P GC activity (L444P GC; [1]): do not increase L444P GC activity; toxicity to L444P fibroblasts (L444P fibroblasts): toxic |
| CC12CCC(CC1)C(C)(C)O2 [eucalyptol] | Only ruthenium red notably increased | – | – |
| Fc1ccc(C(c2ccc(F)cc2)N2CCN(C/C=C/c3ccccc3)CC2)cc1 [flunarizine] | – | only diltiazem and verapamil | – |
| N.N.N.N.N.N.N.N.N.N.N.N.N.N.[Cl-].[Cl-].[Cl-].[Cl-].[Cl-].[Cl-].[O-2].[O-2].[Ru+3].[Ru+3].[Ru+4] [ruthenium red] | notably increased | – | – |
| CN(C)C(=O)C(CCN1CCC(O)(c2ccc(Cl)cc2)CC1)(c1ccccc1)c1ccccc1 [loperamide] | – | only diltiazem and verapamil | – |
| COCCOC(=O)C1=C(C)NC(C)=C(C(=O)OC(C)C)C1c1cccc([N+](=O)[O-])c1 (stereo not shown) [nimodipine] | – | only diltiazem and verapamil | – |
| C=CCN=C=S [allylisothiocyanate] | Only ruthenium red notably increased | – | – |
| CCOC(=O)C(N)/C=C(\C)CP(=O)(O)O (stereo not shown) [CGP 39551] | – | only diltiazem and verapamil | – |
| Oc1cc2c(cc1O)CN(C(=S)NCCc1ccc(Cl)cc1)CCC2 [capsazepine] | Only ruthenium red notably increased | – | – |
| CN(C)CCN1C(=O)[C@H](O)[C@H](c2ccc(O)cc2)Sc2ccccc21 [Compound 3] | – | – | maximum increase in L444P GC activity (L444P GC; [1]): 1.3 fold; IC50 (Ca^2+ channel): 45.5 µM |
| NC(=O)OCC(COC(N)=O)c1ccccc1 [felbamate] | – | only diltiazem and verapamil | – |
| CCCCCCCC/C=C\CCCCCCCC(=O)NCc1ccc(O)c(OC)c1 [olvanil] | Only ruthenium red notably increased | – | – |
| O=C/C=C/c1ccccc1 [cinnamaldehyde] | Only ruthenium red notably increased | – | – |
| O=C1NC(c2cccc([N+](=O)[O-])c2)=CCN1c1ccccc1O [icilin] | Only ruthenium red notably increased | – | – |

| SMILES | L444P GC activity, screen of fifteen thermosensitive TRP channel modulators (L444P GC) | L444P GC activity, screen of VGCC blockers, ionotropic glutamate receptor inhibitors and other calcium channel blockers (L444P GC) | also measured |
| --- | --- | --- | --- |
| COc1cc(/C=C/C(=O)CC(=O)/C=C/c2ccc(O)c(OC)c2)ccc1O [curcumin] | – | – | folding and trafficking of ΔF508 CFTR (ΔF508 CFTR): enhance folding and trafficking of ΔF508 CFTR |
| O=C(/C=C/C=C/c1ccc2c(c1)OCO2)N1CCCCC1 [piperine] | Only ruthenium red notably increased | – | – |
| COc1ccc(CCCOC(Cn2ccnc2)c2ccc(OC)cc2)cc1 (stereo not shown) [SKF 96365] | – | only diltiazem and verapamil | – |
| CCCCc1oc2ccccc2c1C(=O)c1cc(I)c(OCCN(CC)CC)c(I)c1 [amiodarone] | – | only diltiazem and verapamil | – |
| O=[N+]([O-])c1cc2nc(O)c(O)nc2cc1[N+](=O)[O-] [DNQX] | – | only diltiazem and verapamil | – |
| CCCCC/C=C\C/C=C\C/C=C\C/C=C\CCCC(=O)NCCO [anandamide] | Only ruthenium red notably increased | – | – |
| CC1CCC(C(C)C)C(O)C1 (stereo not shown) [menthol] | Only ruthenium red notably increased | – | – |
| CCC1(C)CC(=O)NC1=O (stereo not shown) [ethosuximide] | – | only diltiazem and verapamil | – |
| Cc1cc(-c2ccc(/N=N/c3ccc4c(S(=O)(=O)O)cc(S(=O)(=O)O)c(N)c4c3O)c(C)c2)ccc1/N=N/c1ccc2c(S(=O)(=O)O)cc(S(=O)(=O)O)c(N)c2c1O [Evans blue] | – | only diltiazem and verapamil | – |
| CCCCCCCCCC(=O)O[C@@H]1[C@@H](C)[C@@]2(O)[C@@H](C=C(CO)C[C@@]3(O)C(=O)C(C)=C[C@@H]23)[C@@H]2C(C)(C)[C@]12OC(=O)CCCCCCCCC [Compound 4α-PDD, 4α-PDD] | Only ruthenium red notably increased | – | – |
| O=C(O)c1cc(=O)c2c(Cl)cc(Cl)cc2[nH]1 [5,7-dichlorokynurenic acid] | – | only diltiazem and verapamil | – |
| COc1ccc([C@@H]2Sc3ccccc3N(CCN(C)C)C(=O)[C@@H]2O)cc1 [Compound 2] | – | – | maximum increase of L444P lysosomal GC activity (L444P GC; 10 μM, 7 d, intact cell assay, Figure 3D): 2.1 fold |
| CC(C)COCC(CN(Cc1ccccc1)c1ccccc1)N1CCCC1 (stereo not shown) [bepridil] | – | only diltiazem and verapamil | – |
| COCC(=O)O[C@]1(CCN(C)CCCc2nc3ccccc3[nH]2)CCc2cc(F)ccc2[C@@H]1C(C)C [mibefradil] | – | only diltiazem and verapamil | – |
| CC12CCC(CC1=O)C2(C)C (stereo not shown) [camphor] | Only ruthenium red notably increased | – | – |
| COc1ccc([C@@H]2Sc3ccccc3NC(=O)[C@@H]2O)cc1 [Compound 6] | – | – | effect on L444P GC activity (L444P GC; [1]): do not increase L444P GC activity; toxicity to L444P fibroblasts (L444P fibroblasts): toxic |
| C=C(C)[C@]12C[C@@H](C)[C@@]34O[C@](Cc5ccccc5)(O[C@@H]1[C@@H]3C=C(COC(=O)Cc1ccc(O)c(OC)c1)C[C@]1(O)C(=O)C(C)=C[C@@H]41)O2 [resiniferatoxin] | Only ruthenium red notably increased | – | – |
